Measurements reported in patent publication US20260174875A1 (Novo Nordisk A/S, priority 2023, published 2026).
Numbered stars: 1 amine (or outer) side, 2 acyl side, 3 side chain; on linkers, the order of the positions; unused ones are H or OH. Square brackets hold non-standard residues; d marks the D form. Side chains are listed from the residue outwards. * marks the point of attachment. C20 diacid = O=C(O)CCCCCCCCCCCCCCCCCCC(=O)*; C18 diacid = O=C(O)CCCCCCCCCCCCCCCCC(=O)*; γGlu = O=C(O)[C@H](CCC(=O)[*:2])N[*:1]; AEEA = NCCOCCOCC(=O)O; Aib = CC(C)(N)C(=O)O

Molecular target: T1, human GLP-1 receptor (hGLP-1R) (Homo sapiens, UniProt P43220)
T1 construct: expressed in transfected cells
Assay: GLP-1 receptor assay, method A (CRE-luciferase reporter, BHK cells)
Format: cell-based
Conditions: hGLP-1R Potency, 1% HSA, EC50, method A, in the presence of 1% HSA
Summary of the method: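 Run in parallel with no HSA and with 1% (w/v) HSA to gauge albumin effects; assay buffer also held 1% ovalbumin, 10 mM HEPES and 0.1% Pluronic F-68. Thawed hGLP-1R BHK CRE-Luc cells incubated 3 h at 37 °C, then luciferase luminescence measured (steadylite Plus).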

T1 sequence (P43220 24-463): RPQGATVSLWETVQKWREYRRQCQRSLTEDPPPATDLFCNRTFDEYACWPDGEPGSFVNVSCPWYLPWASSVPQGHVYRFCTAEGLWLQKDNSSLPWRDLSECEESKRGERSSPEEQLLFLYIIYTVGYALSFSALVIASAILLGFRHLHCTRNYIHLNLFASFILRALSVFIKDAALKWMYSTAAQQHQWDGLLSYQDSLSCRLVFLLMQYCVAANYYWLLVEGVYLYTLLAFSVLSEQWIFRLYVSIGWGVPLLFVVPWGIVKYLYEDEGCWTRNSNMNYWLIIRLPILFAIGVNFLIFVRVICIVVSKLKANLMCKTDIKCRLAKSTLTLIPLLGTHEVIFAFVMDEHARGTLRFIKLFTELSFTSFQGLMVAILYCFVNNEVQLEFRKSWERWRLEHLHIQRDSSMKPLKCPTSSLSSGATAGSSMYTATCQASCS

Substance	EC50 [nM]
Y[Aib]EGTFTSDYSILLEEQAAREFIEWLLAGGPSK([AEEA-AEEA-γGlu-C18 diacid])GEASELSTAALGRLSAELHELATLPRTETGSGSP-NH2 [Compound 26]	1.68
Y[Aib]EGTFTSDYSILLEEQAAREFIEWLLAGGPSK([AEEA-AEEA-γGlu-C18 diacid])GGQAPGQAPGEASHLSTAQTQRLSAELHELATLPRTETGSGSP-NH2 [Compound 38]	2.35
Y[Aib]EGTFTSDYSILLEEQAAREFIEWLLAGGPSSGAGQAPGASHLSTAQTQRLSAELHK([AEEA-AEEA-γGlu-C18 diacid])LATLPRTETGSGSP-NH2 [Compound 97]	0.109
Y[Aib]EGTFTSDYSILLEEQAAREFIEWLLAGGPSSGAGQAPGQAPGASHLSTAALGRLSAELHK([AEEA-AEEA-γGlu-C18 diacid])LATLPRTETGSGSP-NH2 [Compound 53]	0.0792
Y[Aib]EGTFTSDYSILLEEQAAREFIEWLLAGGPSSGAGQAPGQAPGASHLSTAQTQRLSAELHRLK([AEEA-AEEA-γGlu-C18 diacid])TLPRTETGSGSP-NH2 [Compound 56]	0.0584
Y[Aib]EGTFTSDYSILLEEQAAREFIEWLLAGGPSSGALQAPGQAPLASHLSTAQTQRLSAELHK([AEEA-AEEA-γGlu-C20 diacid])LATLPRTETGSGSP-NH2 [Compound 99]	0.0362

Same assay, conditions: method A, absence of HSA; read-out: hGLP-1R Potency, no HSA, EC50

Substance	EC50 [nM]
Y[Aib]EGTFTSDYSILLEEQAAREFIEWLLAGGPSK([AEEA-AEEA-γGlu-C18 diacid])GEASELSTAALGRLSAELHELATLPRTETGSGSP-NH2 [Compound 26]	0.0207
Y[Aib]EGTFTSDYSILLEEQAAREFIEWLLAGGPSK([AEEA-AEEA-γGlu-C18 diacid])GGQAPGQAPGEASHLSTAQTQRLSAELHELATLPRTETGSGSP-NH2 [Compound 38]	0.012
Y[Aib]EGTFTSDYSILLEEQAAREFIEWLLAGGPSSGAGQAPGASHLSTAQTQRLSAELHK([AEEA-AEEA-γGlu-C18 diacid])LATLPRTETGSGSP-NH2 [Compound 97]	0.0161
Y[Aib]EGTFTSDYSILLEEQAAREFIEWLLAGGPSSGAGQAPGQAPGASHLSTAALGRLSAELHK([AEEA-AEEA-γGlu-C18 diacid])LATLPRTETGSGSP-NH2 [Compound 53]	0.0233
Y[Aib]EGTFTSDYSILLEEQAAREFIEWLLAGGPSSGAGQAPGQAPGASHLSTAQTQRLSAELHRLK([AEEA-AEEA-γGlu-C18 diacid])TLPRTETGSGSP-NH2 [Compound 56]	0.0182
Y[Aib]EGTFTSDYSILLEEQAAREFIEWLLAGGPSSGALQAPGQAPLASHLSTAQTQRLSAELHK([AEEA-AEEA-γGlu-C20 diacid])LATLPRTETGSGSP-NH2 [Compound 99]	0.0167

Molecular target: T2, human amylin receptor (hAMYR3) (Homo sapiens, UniProt O60896+P30988)
T2 construct: host or cells: BHK cells (Hollex-1 line expressing hCTR(a) and CRE-Luc), further transfected with human RAMP3
Assay: Amylin receptor assay, method A (CRE-luciferase reporter, BHK cells)
Format: cell-based
Conditions: hAMYR3 Potency, 1% HSA, EC50, method A, in the presence of 1% HSA

T2 sequence (P30988 25-474): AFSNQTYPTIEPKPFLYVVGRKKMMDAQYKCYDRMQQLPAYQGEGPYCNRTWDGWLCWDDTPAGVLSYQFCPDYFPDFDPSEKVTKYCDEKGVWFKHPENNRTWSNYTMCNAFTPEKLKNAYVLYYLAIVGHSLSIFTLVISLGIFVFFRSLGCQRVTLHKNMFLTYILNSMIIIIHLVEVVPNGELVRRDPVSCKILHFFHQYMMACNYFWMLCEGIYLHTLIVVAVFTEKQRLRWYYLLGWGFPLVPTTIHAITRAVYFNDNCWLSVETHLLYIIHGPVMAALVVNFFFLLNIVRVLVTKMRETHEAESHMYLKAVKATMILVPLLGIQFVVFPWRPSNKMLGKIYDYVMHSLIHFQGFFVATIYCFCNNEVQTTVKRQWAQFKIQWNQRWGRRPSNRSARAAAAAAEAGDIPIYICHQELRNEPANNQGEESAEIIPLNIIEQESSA
T2 sequence (O60896 24-148): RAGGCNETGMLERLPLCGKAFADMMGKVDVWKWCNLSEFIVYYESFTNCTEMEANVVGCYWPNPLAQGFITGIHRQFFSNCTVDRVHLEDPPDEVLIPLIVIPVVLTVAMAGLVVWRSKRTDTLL

Substance	EC50 [nM]
Y[Aib]EGTFTSDYSILLEEQAAREFIEWLLAGGPSK([AEEA-AEEA-γGlu-C18 diacid])GEASELSTAALGRLSAELHELATLPRTETGSGSP-NH2 [Compound 26]	0.349
Y[Aib]EGTFTSDYSILLEEQAAREFIEWLLAGGPSK([AEEA-AEEA-γGlu-C18 diacid])GGQAPGQAPGEASHLSTAQTQRLSAELHELATLPRTETGSGSP-NH2 [Compound 38]	0.172
Y[Aib]EGTFTSDYSILLEEQAAREFIEWLLAGGPSSGAGQAPGASHLSTAQTQRLSAELHK([AEEA-AEEA-γGlu-C18 diacid])LATLPRTETGSGSP-NH2 [Compound 97]	0.132
Y[Aib]EGTFTSDYSILLEEQAAREFIEWLLAGGPSSGAGQAPGQAPGASHLSTAALGRLSAELHK([AEEA-AEEA-γGlu-C18 diacid])LATLPRTETGSGSP-NH2 [Compound 53]	0.0759
Y[Aib]EGTFTSDYSILLEEQAAREFIEWLLAGGPSSGAGQAPGQAPGASHLSTAQTQRLSAELHRLK([AEEA-AEEA-γGlu-C18 diacid])TLPRTETGSGSP-NH2 [Compound 56]	0.0449
Y[Aib]EGTFTSDYSILLEEQAAREFIEWLLAGGPSSGALQAPGQAPLASHLSTAQTQRLSAELHK([AEEA-AEEA-γGlu-C20 diacid])LATLPRTETGSGSP-NH2 [Compound 99]	0.129

Same assay, conditions: method A, absence of HSA; read-out: hAMYR3 Potency, no HSA, EC50

Substance	EC50 [nM]
Y[Aib]EGTFTSDYSILLEEQAAREFIEWLLAGGPSK([AEEA-AEEA-γGlu-C18 diacid])GEASELSTAALGRLSAELHELATLPRTETGSGSP-NH2 [Compound 26]	0.0118
Y[Aib]EGTFTSDYSILLEEQAAREFIEWLLAGGPSK([AEEA-AEEA-γGlu-C18 diacid])GGQAPGQAPGEASHLSTAQTQRLSAELHELATLPRTETGSGSP-NH2 [Compound 38]	0.00363
Y[Aib]EGTFTSDYSILLEEQAAREFIEWLLAGGPSSGAGQAPGASHLSTAQTQRLSAELHK([AEEA-AEEA-γGlu-C18 diacid])LATLPRTETGSGSP-NH2 [Compound 97]	0.00281
Y[Aib]EGTFTSDYSILLEEQAAREFIEWLLAGGPSSGAGQAPGQAPGASHLSTAALGRLSAELHK([AEEA-AEEA-γGlu-C18 diacid])LATLPRTETGSGSP-NH2 [Compound 53]	0.00322
Y[Aib]EGTFTSDYSILLEEQAAREFIEWLLAGGPSSGAGQAPGQAPGASHLSTAQTQRLSAELHRLK([AEEA-AEEA-γGlu-C18 diacid])TLPRTETGSGSP-NH2 [Compound 56]	0.00236
Y[Aib]EGTFTSDYSILLEEQAAREFIEWLLAGGPSSGALQAPGQAPLASHLSTAQTQRLSAELHK([AEEA-AEEA-γGlu-C20 diacid])LATLPRTETGSGSP-NH2 [Compound 99]	0.00282

Test system: not listed separately
Assay: Chemical stability assessment in formulation (UPLC-UV-MS purity loss at 37° C.)
Format: physicochemical
Conditions: 8 mM phosphate buffer pH 7.4, 1 mg/mL, 2 weeks
Summary of the method: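 Peptides at target 1 mg/mL in 8 mM phosphate buffer, pH adjusted to 7.4, incubated in capped vials at 37° C. and sampled over 2 weeks, frozen until analysis. Purity followed by UPLC-UV-MS with a 0.1% formic acid water/acetonitrile gradient.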

Substance	Purity loss per week at 37° C. [%]
Y[Aib]EGTFTSDYSILLEEQAAREFIEWLLAGGPSSGAGQAPGQAPGASHLSTAALGRLSAELHK([AEEA-AEEA-γGlu-C18 diacid])LATLPRTETGSGSP-NH2 [Compound 53]	0.8
Y[Aib]EGTFTSDYSILLEEQAAREFIEWLLAGGPSSGAGQAPGQAPGASHLSTAQTQRLSAELHRLK([AEEA-AEEA-γGlu-C18 diacid])TLPRTETGSGSP-NH2 [Compound 56]	0.6
